Data as given in patent US8129366B2, “VLA-4 inhibitory drug” (Daiichi Sankyo Company, Limited, priority 2005, dated 2012).
Values after ≈ are worked out from the molar mass of the structure shown.

What was measured:
[1] = Solubility test in first and second liquid of the Japanese Pharmacopoeia; details: Solubility
Description: The solubilities of the substance under test in the first liquid (JP1, pH=1.2) of the Japanese Pharmacopoeia and the second liquid (JP2, pH=6.8) of the Japanese Pharmacopoeia, were evaluated.

hα4 and β1 integrins = target: T1, hα4 and β1 integrins (Homo sapiens, UniProt P05556+P13612); assay: In vitro inhibition of binding between CHO cells expressing hα4 and β1 integrins and Eu3+-hVCAM-1 D1D7-IgG; details: for Ki: CHO cells expressing hα4 and β1 integrins, Eu3+-hVCAM-1 D1D7-IgG ligand, without HSA; for IC50: in the presence of 3% human serum albumin (HSA final concentration 3%)
T1 construct: expressed in transfected cells; host or cells: CHO cells
Summary of the method: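 Bound europium-labelled VCAM-1 D1D7-IgG on α4β1-expressing CHO cells was measured by time-resolved fluorescence after washing at 4 °C. Ligand (2 nM working dilution) and test compound, with or without 3% final HSA, were co-incubated for 1 h at room temperature in Mn²⁺-containing HEPES buffer, pH 7.5. IC50 came from % binding inhibition; Ki was calculated from ligand concentration and Scatchard Kd.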

T1 sequence (P13612 34-1032): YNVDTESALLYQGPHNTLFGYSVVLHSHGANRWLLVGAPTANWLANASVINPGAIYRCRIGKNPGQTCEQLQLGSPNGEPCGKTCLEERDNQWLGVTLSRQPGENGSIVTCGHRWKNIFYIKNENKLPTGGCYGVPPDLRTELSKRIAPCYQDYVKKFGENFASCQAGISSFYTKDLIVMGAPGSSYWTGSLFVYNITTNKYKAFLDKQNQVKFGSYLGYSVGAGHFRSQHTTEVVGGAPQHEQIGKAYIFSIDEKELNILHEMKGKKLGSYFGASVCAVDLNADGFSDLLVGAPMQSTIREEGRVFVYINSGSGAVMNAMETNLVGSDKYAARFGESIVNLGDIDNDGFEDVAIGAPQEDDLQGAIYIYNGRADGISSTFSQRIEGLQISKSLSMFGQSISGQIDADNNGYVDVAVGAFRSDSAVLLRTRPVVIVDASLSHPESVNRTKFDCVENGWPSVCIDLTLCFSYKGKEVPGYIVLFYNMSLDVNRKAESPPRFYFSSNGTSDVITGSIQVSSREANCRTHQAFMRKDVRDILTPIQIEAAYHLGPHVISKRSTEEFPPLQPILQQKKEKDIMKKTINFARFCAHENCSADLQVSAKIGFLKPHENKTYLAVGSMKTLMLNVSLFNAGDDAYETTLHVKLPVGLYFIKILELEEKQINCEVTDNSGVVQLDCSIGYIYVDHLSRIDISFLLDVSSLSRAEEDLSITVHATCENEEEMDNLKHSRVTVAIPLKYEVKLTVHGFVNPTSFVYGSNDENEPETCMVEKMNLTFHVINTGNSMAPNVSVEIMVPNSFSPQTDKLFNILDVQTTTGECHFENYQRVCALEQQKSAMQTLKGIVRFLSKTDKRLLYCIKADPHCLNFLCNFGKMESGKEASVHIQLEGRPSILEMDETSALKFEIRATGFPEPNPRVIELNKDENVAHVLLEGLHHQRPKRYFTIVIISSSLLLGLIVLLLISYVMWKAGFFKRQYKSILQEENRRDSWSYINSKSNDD
T1 sequence (P05556 21-798): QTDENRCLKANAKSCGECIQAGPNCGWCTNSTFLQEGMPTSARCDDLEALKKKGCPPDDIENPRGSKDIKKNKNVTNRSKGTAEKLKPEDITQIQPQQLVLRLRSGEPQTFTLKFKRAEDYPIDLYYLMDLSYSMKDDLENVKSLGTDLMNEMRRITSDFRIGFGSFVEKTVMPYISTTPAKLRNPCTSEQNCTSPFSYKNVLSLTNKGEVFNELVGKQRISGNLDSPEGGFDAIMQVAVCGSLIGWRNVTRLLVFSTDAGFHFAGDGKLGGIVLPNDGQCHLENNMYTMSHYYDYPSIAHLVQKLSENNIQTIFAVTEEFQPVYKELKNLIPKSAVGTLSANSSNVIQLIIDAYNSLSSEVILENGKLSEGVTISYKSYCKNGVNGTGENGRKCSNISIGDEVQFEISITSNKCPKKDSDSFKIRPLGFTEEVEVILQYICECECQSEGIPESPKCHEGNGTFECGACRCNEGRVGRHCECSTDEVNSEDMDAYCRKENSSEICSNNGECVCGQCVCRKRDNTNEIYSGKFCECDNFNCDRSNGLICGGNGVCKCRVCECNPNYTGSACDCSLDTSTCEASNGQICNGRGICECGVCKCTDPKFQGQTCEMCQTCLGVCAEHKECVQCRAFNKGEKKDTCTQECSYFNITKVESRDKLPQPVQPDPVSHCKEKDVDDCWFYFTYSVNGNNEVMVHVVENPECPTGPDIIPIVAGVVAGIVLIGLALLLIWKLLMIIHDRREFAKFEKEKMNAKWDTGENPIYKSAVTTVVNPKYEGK

Cn1cc(C(=O)Nc2cc(F)c(CC(=O)N3C[C@@H](N4CC(C)(C)C4)C[C@H]3CO[C@H]3CC[C@H](C(=O)O)CC3)cc2Cl)c2ccccc21 [Example 14, Trans-4-[1-[[5-chloro-2-fluoro-4-[(1-methyl-1H-indol-3-ylcarbonyl)amino]phenyl]acetyl]-(4S)-(3,3-dimethylazetidin-1-yl)-(2S)-pyrrolidinylmethoxy]cyclohexanecarboxylic acid]
solubility ([1]; first liquid of the Japanese Pharmacopoeia (JP1), pH 1.2, simulated gastric fluid, First liquid of Japanese Pharmacopoeia (μg/mL), JP1, pH=1.2): 1100 µg/mL (≈ 1680 µM) | solubility ([1]; second liquid of the Japanese Pharmacopoeia (JP2), pH 6.8, aqueous buffer, Second liquid of Japanese Pharmacopoeia (μg/mL), JP2, pH=6.8): 1000 µg/mL (≈ 1530 µM)

CC(=O)N1CCN([C@H]2C[C@@H](CO[C@H]3CC[C@H](C(=O)O)CC3)N(C(=O)Cc3cc(Cl)c(NC(=O)c4csc5ccccc45)cc3F)C2)CC1 [Example 148, Trans-4-[1-[[4-[(benzo[b]thiophen-3-ylcarbonyl)amino]-5-chloro-2-fluorophenyl]acetyl]-(4S)-(4-acetylpiperazin-1-yl)-(2S)-pyrrolidinylmethoxy]cyclohexanecarboxylic acid]
Ki (hα4 and β1 integrins): 0.53 nM | IC50 (hα4 and β1 integrins): 2.8 nM

Cn1cc(C(=O)Nc2cc(Cl)c(CC(=O)N3C[C@@H](N4CCN(C(=O)C(C)(C)C)CC4)C[C@H]3CO[C@H]3CC[C@H](C(=O)O)CC3)cc2Cl)c2ccccc21 [Example 149, Trans-4-[1-[[2,5-dichloro-4-[(1-methyl-1H-indol-3-ylcarbonyl)amino]phenyl]acetyl]-(4S)-(4-pivaloylpiperazin-1-yl)-(2S)-pyrrolidinylmethoxy]cyclohexanecarboxylic acid]
Ki (hα4 and β1 integrins): 1.7 nM | IC50 (hα4 and β1 integrins): 24 nM

CS(=O)(=O)N1CCN([C@H]2C[C@@H](CO[C@H]3CC[C@H](C(=O)O)CC3)N(C(=O)Cc3cc(Cl)c(NC(=O)c4coc5ccccc45)cc3F)C2)CC1 [Example 150, Trans-4-[1-[[4-[(benzo[b]furan-3-ylcarbonyl)amino]-5-chloro-2-fluorophenyl]acetyl]-(4S)-(4-methanesulfonylpiperazin-1-yl)-(2S)-pyrrolidinylmethoxy]cyclohexanecarboxylic acid]
Ki (hα4 and β1 integrins): 1.6 nM | IC50 (hα4 and β1 integrins): 6.8 nM

CN(C)S(=O)(=O)N1CCN([C@H]2C[C@@H](CO[C@H]3CC[C@H](C(=O)O)CC3)N(C(=O)Cc3cc(Cl)c(NC(=O)c4cn(C)c5ccccc45)cc3Cl)C2)CC1 [Example 151, Trans-4-[1-[[2,5-dichloro-4-[(1-methyl-1H-indol-3-ylcarbonyl)amino]phenyl]acetyl]-(4S)-(4-N,N-dimethylsulfamoylpiperazin-1-yl)-(2S)-pyrrolidinylmethoxy]cyclohexanecarboxylic acid]
Ki (hα4 and β1 integrins): 4.2 nM | IC50 (hα4 and β1 integrins): 26 nM

CN1CCN([C@H]2C[C@@H](CO[C@H]3CC[C@H](C(=O)O)CC3)N(C(=O)Cc3cc(Cl)c(NC(=O)c4cn(C)c5ccccc45)cc3Cl)C2)CC1=O [Example 152, Trans-4-[1-[[2,5-dichloro-4-[(1-methyl-1H-indol-3-ylcarbonyl)amino]phenyl]acetyl]-(4S)-(4-methyl-3-oxopiperazin-1-yl)-(2S)-pyrrolidinylmethoxy]cyclohexanecarboxylic acid]
Ki (hα4 and β1 integrins): 3.9 nM | IC50 (hα4 and β1 integrins): 11 nM

CN1CCN([C@H]2C[C@@H](CO[C@H]3CC[C@H](C(=O)O)CC3)N(C(=O)Cc3cc(Cl)c(NC(=O)c4csc5ccccc45)cc3Cl)C2)CC1=O [Example 153, Trans-4-[1-[[4-[(benzo[b]thiophen-3-ylcarbonyl)amino]-2,5-dichlorophenyl]acetyl]-(4S)-(4-methyl-3-oxopiperazin-1-yl)-(2S)-pyrrolidinylmethoxy]cyclohexanecarboxylic acid]
Ki (hα4 and β1 integrins): 1.5 nM | IC50 (hα4 and β1 integrins): 9.3 nM

CCN1CCN([C@H]2C[C@@H](CO[C@H]3CC[C@H](C(=O)O)CC3)N(C(=O)Cc3cc(Cl)c(NC(=O)c4csc5ccccc45)cc3F)C2)CC1=O [Example 154, Trans-4-[1-[[4-[(benzo[b]thiophen-3-ylcarbonyl)amino]-5-chloro-2-fluorophenyl]acetyl]-(4S)-(4-ethyl-3-oxopiperazin-1-yl)-(2S)-pyrrolidinylmethoxy]cyclohexanecarboxylic acid]
Ki (hα4 and β1 integrins): 0.92 nM | IC50 (hα4 and β1 integrins): 9.1 nM

CN1CCN([C@H]2C[C@@H](CO[C@H]3CC[C@H](C(=O)O)CC3)N(C(=O)Cc3cc(Cl)c(NC(=O)c4coc5ccccc45)cc3Cl)C2)CC1=O [Example 155, Trans-4-[1-[[4-[(benzo[b]furan-3-ylcarbonyl)amino]-2,5-dichlorophenyl]acetyl]-(4S)-(4-methyl-3-oxopiperazin-1-yl)-(2S)-pyrrolidinylmethoxy]cyclohexanecarboxylic acid]
Ki (hα4 and β1 integrins): 2.1 nM | IC50 (hα4 and β1 integrins): 10 nM

Cn1cc(C(=O)Nc2cc(F)c(CC(=O)N3C[C@@H](N4CCSCC4)C[C@H]3CO[C@H]3CC[C@H](C(=O)O)CC3)cc2Cl)c2ccccc21 [Example 158, Trans-4-[1-[[5-chloro-2-fluoro-4-[(1-methyl-1H-indol-3-ylcarbonyl)amino]phenyl]acetyl]-(4S)-(thiomorpholin-4-yl)-(2S)-pyrrolidinylmethoxy]cyclohexanecarboxylic acid]
Ki (hα4 and β1 integrins): 4 nM | IC50 (hα4 and β1 integrins): 16 nM

O=C(Nc1cc(F)c(CC(=O)N2C[C@@H](N3CCSCC3)C[C@H]2CO[C@H]2CC[C@H](C(=O)O)CC2)cc1Cl)c1coc2ccccc12 [Example 159, Trans-4-[1-[[4-[(benzo[b]furan-3-ylcarbonyl)amino]-5-chloro-2-fluorophenyl]acetyl]-(4S)-(thiomorpholin-4-yl)-(2S)-pyrrolidinylmethoxy]cyclohexanecarboxylic acid]
Ki (hα4 and β1 integrins): 4.4 nM | IC50 (hα4 and β1 integrins): 13 nM

Cn1cc(C(=O)Nc2cc(F)c(CC(=O)N3C[C@@H](N4CCS(=O)(=O)CC4)C[C@H]3CO[C@H]3CC[C@H](C(=O)O)CC3)cc2Cl)c2ccccc21 [Example 160, Trans-4-[1-[[5-chloro-2-fluoro-4-[(1-methyl-1H-indol-3-ylcarbonyl)amino]phenyl]acetyl]-(4S)-(1,1-dioxo-1λ^6-thiomorpholin-4-yl)-(2S)-pyrrolidinylmethoxy]cyclohexanecarboxylic acid]
Ki (hα4 and β1 integrins): 2.4 nM | IC50 (hα4 and β1 integrins): 9.9 nM

Cn1cc(C(=O)Nc2cc(Cl)c(CC(=O)N3C[C@@H](N4CC5CC4CO5)C[C@H]3CO[C@H]3CC[C@H](C(=O)O)CC3)cc2Cl)c2ccccc21 (stereo partly drawn) [Example 162, Trans-4-[1-[[2,5-dichloro-4-[1-methyl-1H-indol-3-ylcarbonylamino]phenyl]acetyl]-(4S)-[(1S,4S)-2-oxa-5-azabicyclo[2.2.1]heptan-5-yl]-(2S)-pyrrolidinylmethoxy]cyclohexanecarboxylic acid]
Ki (hα4 and β1 integrins): 6.5 nM | IC50 (hα4 and β1 integrins): 49 nM

Cn1cc(C(=O)Nc2cc(F)c(CC(=O)N3C[C@@H](N4CC5CC4CO5)C[C@H]3CO[C@H]3CC[C@H](C(=O)O)CC3)cc2Cl)c2ccccc21 (stereo partly drawn) [Example 163, Trans-4-[1-[[5-chloro-2-fluoro-4-[(1-methyl-1H-indol-3-ylcarbonyl)amino]phenyl]acetyl]-(4S)-[(1S,4S)-2-oxa-5-azabicyclo[2.2.1]heptan-5-yl]-(2S)-pyrrolidinylmethoxy]cyclohexanecarboxylic acid]
Ki (hα4 and β1 integrins): 6.4 nM | IC50 (hα4 and β1 integrins): 36 nM

O=C(Nc1cc(Cl)c(CC(=O)N2C[C@@H](N3CCCOCC3)C[C@H]2CO[C@H]2CC[C@H](C(=O)O)CC2)cc1Cl)c1csc2ccccc12 [Example 166, Trans-4-[1-[[4-[(benzo[b]thiophen-3-ylcarbonyl)amino]-2,5-dichlorophenyl]acetyl]-(4S)-([1,4]-oxazepan-4-yl)-(2S)-pyrrolidinylmethoxy]cyclohexanecarboxylic acid]
Ki (hα4 and β1 integrins): 1.7 nM | IC50 (hα4 and β1 integrins): 8.2 nM

O=C(Nc1cc(Cl)c(CC(=O)N2C[C@@H](N3CCCOCC3)C[C@H]2CO[C@H]2CC[C@H](C(=O)O)CC2)cc1Cl)c1coc2ccccc12 [Example 167, Trans-4-[1-[[4-[(benzo[b]furan-3-ylcarbonyl)amino]-2,5-dichlorophenyl]acetyl]-(4S)-([1,4]-oxazepan-4-yl)-(2S)-pyrrolidinylmethoxy]cyclohexanecarboxylic acid]
Ki (hα4 and β1 integrins): 4.4 nM | IC50 (hα4 and β1 integrins): 19 nM

O=C(Nc1cc(F)c(CC(=O)N2C[C@@H](N3CCCOCC3)C[C@H]2CO[C@H]2CC[C@H](C(=O)O)CC2)cc1Cl)c1coc2ccccc12 [Example 168, Trans-4-[1-[[4-[(benzo[b]furan-3-ylcarbonyl)amino]-5-chloro-2-fluorophenyl]acetyl]-(4S)-([1,4]-oxazepan-4-yl)-(2-S)-pyrrolidinylmethoxy]cyclohexanecarboxylic acid]
Ki (hα4 and β1 integrins): 2 nM | IC50 (hα4 and β1 integrins): 9.4 nM

O=C(Nc1cc(Cl)c(CC(=O)N2C[C@@H](N3CCCN(C4CC4)CC3)C[C@H]2CO[C@H]2CC[C@H](C(=O)O)CC2)cc1Cl)c1csc2ccccc12 [Example 169, Trans-4-[1-[[4-[(benzo[b]thiophen-3-ylcarbonyl)amino]2,5-dichlorophenyl]acetyl]-(4S)-(4-cyclopropyl-[1,4]-diazepan-1-yl)-(2S)-pyrrolidinylmethoxy]cyclohexanecarboxylic acid]
Ki (hα4 and β1 integrins): 1.1 nM | IC50 (hα4 and β1 integrins): 5.9 nM

CS(=O)(=O)N1CCCN([C@H]2C[C@@H](CO[C@H]3CC[C@H](C(=O)O)CC3)N(C(=O)Cc3cc(Cl)c(NC(=O)c4coc5ccccc45)cc3F)C2)CC1 [Example 170, Trans-4-[1-[[4-[(benzo[b]furan-3-ylcarbonyl)amino]-5-chloro-2-fluorophenyl]acetyl]-(4S)-(4-methanesulfonyl[1,4]-diazepan-1-yl)-(2S)-pyrrolidinylmethoxy]cyclohexanecarboxylic acid]
Ki (hα4 and β1 integrins): 2.6 nM | IC50 (hα4 and β1 integrins): 11 nM
